Results on five molecules are retold here after ChEMBL document CHEMBL1275250, “In vitro activity of azithromycin against nontyphoidal Salmonella enterica” (2010).

The structures appear in SMILES notation. Values after ≈ are worked out from the molar mass of the structure shown.

A short description of test [1]: Antibacterial activity against quinolone-susceptible Salmonella enterica serovar newport s2099 by agar dilution method. It counts as functional, Salmonella enterica subsp. enterica serovar Newport. In general terms: In agar dilution, organisms are placed on agar that contains the substance at set levels.
Test [2] can be described thus: Antibacterial activity against quinolone-resistant Salmonella enterica serovar stanley s2018 by agar dilution method. In kind it is functional, Salmonella enterica subsp. enterica serovar Stanley.
Test [3] in a line: Antibacterial activity against quinolone-susceptible Salmonella enterica serovar rissen s2021 by agar dilution method. It counts as functional, Salmonella enterica subsp. enterica serovar Rissen.
Test [4] in a line: Antibacterial activity against quinolone-resistant Salmonella enterica serovar stanley s2085 by agar dilution method. It counts as functional, Salmonella enterica subsp. enterica serovar Stanley.
Test [5] in a line: Antibacterial activity against quinolone-resistant Salmonella enterica serovar stanley s2086 by agar dilution method. It counts as functional, Salmonella enterica subsp. enterica serovar Stanley.
Test [6] can be described thus: Antibacterial activity against quinolone-susceptible Salmonella enterica serovar poona s2181 by agar dilution method. It counts as functional, Salmonella enterica subsp. enterica serovar Poona.
The subject of test [7] is Salmonella typhimurium. The experiment in a line: Antibacterial activity against quinolone-susceptible Salmonella enterica serovar Typhimurium s2137 by agar dilution method. In kind it is functional, Salmonella enterica subsp. enterica serovar Typhimurium.
Test [8] is described as follows: Antibacterial activity against quinolone-susceptible Salmonella enterica serovar virchow s2195 by agar dilution method. It counts as functional, Salmonella enterica subsp. enterica serovar Virchow.
Test [9] is described as follows: Antibacterial activity against quinolone-resistant Salmonella enterica serovar stanley s2236 by agar dilution method. In kind it is functional, Salmonella enterica subsp. enterica serovar Stanley.
Test [10] can be described thus: Antibacterial activity against quinolone-resistant Salmonella enterica serovar stanley s2265 by agar dilution method. It counts as functional, Salmonella enterica subsp. enterica serovar Stanley.
Test [11] can be described thus: Antibacterial activity against quinolone-resistant Salmonella enterica serovar stanley s2280 by agar dilution method. It counts as functional, Salmonella enterica subsp. enterica serovar Stanley.
For test [12], the system named is Salmonella typhimurium. The experiment in a line: Antibacterial activity against quinolone-susceptible Salmonella enterica serovar Typhimurium s2389 by agar dilution method. In kind it is functional, Salmonella enterica subsp. enterica serovar Typhimurium.
For test [13], the system named is Salmonella typhimurium. As to the kind of experiment: Antibacterial activity against quinolone-susceptible Salmonella enterica serovar Typhimurium s2391 by agar dilution method. In kind it is functional, Salmonella enterica subsp. enterica serovar Typhimurium.
Test [14] in a line: Antibacterial activity against quinolone-susceptible Salmonella enterica serovar blockley s2439 by agar dilution method. In kind it is functional, Salmonella enterica subsp. enterica serovar Blockley.
Test [15] in a line: Antibacterial activity against quinolone-susceptible Salmonella enterica serovar bredeney s2477 by agar dilution method. It counts as functional, Salmonella enterica subsp. enterica serovar Bredeney.
Test [16] can be described thus: Antibacterial activity against quinolone-susceptible Salmonella enterica serovar blockley s2608 by agar dilution method. In kind it is functional, Salmonella enterica subsp. enterica serovar Blockley.
Test [17] can be described thus: Antibacterial activity against quinolone-susceptible Salmonella enterica serovar emek s2635 by agar dilution method. It counts as functional, Salmonella enterica subsp. enterica serovar Emek.
Test [18] can be described thus: Antibacterial activity against quinolone-susceptible Salmonella enterica serovar blockley s2768 by agar dilution method. It counts as functional, Salmonella enterica subsp. enterica serovar Blockley.
The nature of test [19]: Antibacterial activity against quinolone-susceptible Salmonella enterica serovar saintpaul s2829 by agar dilution method. In kind it is functional, Salmonella enterica subsp. enterica serovar Saintpaul.
Test [20] can be described thus: Antibacterial activity against quinolone-susceptible Salmonella enterica serovar stanley s2868 by agar dilution method. It counts as functional, Salmonella enterica subsp. enterica serovar Stanley.
Test [21] can be described thus: Antibacterial activity against quinolone-susceptible Salmonella enterica serovar hvittingfoss s2948 by agar dilution method. In kind it is functional, Salmonella enterica subsp. enterica serovar Hvittingfoss.
A short description of test [22]: Antibacterial activity against quinolone-susceptible Salmonella enterica serovar rissen s3141 by agar dilution method. It counts as functional, Salmonella enterica subsp. enterica serovar Rissen.
Test [23] deals with Salmonella typhimurium. As to the kind of experiment: Antibacterial activity against quinolone-susceptible Salmonella enterica serovar Typhimurium s3082 by agar dilution method. In kind it is functional, Salmonella enterica subsp. enterica serovar Typhimurium.
Test [24] concerns Salmonella enteritidis. The experiment in a line: Antibacterial activity against quinolone-susceptible Salmonella enterica serovar enteritidis s3139 by agar dilution method. In kind it is functional, Salmonella enterica subsp. enterica serovar Enteritidis.
Test [25] can be described thus: Antibacterial activity against Salmonella enterica serovar blockley harboring G235A mutation in rlpD gene by agar dilution method. It counts as functional, Salmonella enterica subsp. enterica serovar Blockley.
A short description of test [26]: Antibacterial activity against Salmonella enterica subsp. enterica serovar Saintpaul harboring G235A mutation in rlpD gene by agar dilution method. It counts as functional.
For test [27], the system named is Salmonella typhimurium. As to the kind of experiment: Antibacterial activity against Salmonella enterica serovar Typhimurium harboring G235A mutation in rlpD gene by agar dilution method. In kind it is functional, Salmonella enterica subsp. enterica serovar Typhimurium.
Test [28] is described as follows: Antibacterial activity against Salmonella enterica serovar montevideo harboring rlpD GC379T and rlpV G25A mutant gene by agar dilution method. It counts as functional, Salmonella enterica subsp. enterica serovar Montevideo.
Test [29] deals with Salmonella enterica. As to the kind of experiment: Antibacterial activity against quinolone-resistant Salmonella enterica. In kind it is functional.

As for `CC[C@H]1OC(=O)[C@H](C)[C@@H](O[C@H]2C[C@@](C)(OC)[C@@H](O)[C@H](C)O2)[C@H](C)[C@@H](O[C@@H]2O[C@H](C)C[C@H](N(C)C)[C@H]2O)[C@](C)(O)C[C@@H](C)CN(C)[C@H](C)[C@@H](O)[C@]1(C)O` [AZITHROMYCIN], the MIC was 32 µg/mL (≈ 42.7 µM) in [1]; 64 µg/mL (≈ 85.4 µM) in test [2]; above 128 µg/mL in test [3]; 64 µg/mL (≈ 85.4 µM) in test [4]; 64 µg/mL (≈ 85.4 µM) in test [5]; 32 µg/mL (≈ 42.7 µM) in test [6]. For the same molecule, the MIC was 128 µg/mL (≈ 171 µM) in test [7]; above 128 µg/mL in test [8]; 32 µg/mL (≈ 42.7 µM) in test [9]; 128 µg/mL (≈ 171 µM) in test [10]; 64 µg/mL (≈ 85.4 µM) in test [11]; 128 µg/mL (≈ 171 µM) in test [12]. In addition, the MIC in [13] was 128 µg/mL (≈ 171 µM); in [14] it was 64 µg/mL (≈ 85.4 µM); in [15] it was above 128 µg/mL; in test [16] it was 64 µg/mL (≈ 85.4 µM); in test [17], 64 µg/mL (≈ 85.4 µM); in test [18], 128 µg/mL (≈ 171 µM). Also, the MIC in [19] worked out at 64 µg/mL (≈ 85.4 µM); in test [20], 128 µg/mL (≈ 171 µM); in test [21], 128 µg/mL (≈ 171 µM); in test [22] it was 64 µg/mL (≈ 85.4 µM); in test [23], 128 µg/mL (≈ 171 µM); in test [24], 128 µg/mL (≈ 171 µM). The MIC in test [25] is 64 µg/mL (≈ 85.4 µM); in [26] it was 64 µg/mL (≈ 85.4 µM); in [27], 128 µg/mL (≈ 171 µM); in test [28], 4 µg/mL (≈ 5.34 µM); in test [29], at least 32 µg/mL.

As to `CC[C@H]1OC(=O)[C@H](C)C(=O)[C@H](C)[C@@H](O[C@@H]2O[C@H](C)C[C@H](N(C)C)[C@H]2O)[C@](C)(OC)C[C@@H](C)C(=O)[C@H](C)[C@H]2N(CCCCn3cnc(-c4cccnc4)c3)C(=O)O[C@]12C` [TELITHROMYCIN], the MIC in [25] was above 128 µg/mL; in [26], above 128 µg/mL; in [27], above 128 µg/mL; in test [28], 4 µg/mL (≈ 4.93 µM).

As for `CC[C@H]1OC(=O)[C@H](C)[C@@H](O[C@H]2C[C@@](C)(OC)[C@@H](O)[C@H](C)O2)[C@H](C)[C@@H](O[C@@H]2O[C@H](C)C[C@H](N(C)C)[C@H]2O)[C@](C)(O)C[C@@H](C)C(=O)[C@H](C)[C@@H](O)[C@]1(C)O` [ERYTHROMYCIN], the MIC in test [25] was above 128 µg/mL; in [26], above 128 µg/mL; in test [27], above 64 µg/mL; in test [28], above 64 µg/mL.

Take `O=C(O)c1cn(C2CC2)c2cc(N3CCNCC3)c(F)cc2c1=O` [CIPROFLOXACIN]: the MIC in test [25] is 0.25 µg/mL (≈ 0.754 µM); in test [26], 0.03 µg/mL (≈ 0.0905 µM); in [27], 0.06 µg/mL (≈ 0.181 µM); in test [28], 0.5 µg/mL (≈ 1.51 µM); in test [29] it was at least 0.125 µg/mL.

`CCn1cc(C(=O)O)c(=O)c2ccc(C)nc21` [NALIDIXIC ACID]: the MIC in [25] is above 512 µg/mL; in test [26], 16 µg/mL (≈ 68.9 µM); in test [27] it was 16 µg/mL (≈ 68.9 µM); in test [28], 16 µg/mL (≈ 68.9 µM); in test [29], at least 32 µg/mL.

In general, MIC refers to the lowest concentration that inhibits growth of the organism. The low end stands for inhibition by little substance, the high end for a need for much substance.
